Values quoted from earlier work in patent US20030153801A1, “Compositions of cyclooxygenase-2 selective inhibitors and radiation for inhibition or prevention of cardiovascular disease” (Pharmacia Corporation, priority 2001, published 2003).

What was measured:
[1] = system: restenosis; conditions: orally administered; stent implanted pig arteries
[2] = system: coronary intimal proliferation; conditions: oral administration; swine model of restenosis
[3] = system: vascular smooth muscle cells; conditions: in vitro
[4] = single dose pretreatment, intravenous, before coronary stenting

For COc1ccc(C=CC(=O)Nc2ccccc2C(=O)O)cc1OC [tranilast, N-(3,4-dimethoxycinnamoyl) anthranilic acid], the rate of restenosis [1] is given as “lower”.
For CN(C)CCCO[C@@H]1[C@H]2OC(C)(C)O[C@H]2O[C@@H]1[C@H](O)CO.Cl [aniprilose hydrochloride], the coronary intimal proliferation [2] is given as “did not prevent”.
For COc1cc(/C=C/C(=O)CC(=O)/C=C/c2ccc(O)c(OC)c2)ccc1O [curcumin], the “proliferation of vascular smooth muscle cells” value [3] is given as “reduced”.
In the case of C[C@H]1C[C@@H]2[C@H]([C@@H](O)C[C@@]3(C)[C@H]2CC[C@]3(O)C(=O)CO)[C@@]2(C)C=CC(=O)C=C12 [methylpridnisolone], the “change in minimal lumen diameter at 6 months” value [4] is listed as “no effect”.
